From ChEMBL document CHEMBL1143015, “Hyrtinadine A, a bis-indole alkaloid from a marine sponge” (J Nat Prod, 2007)
≈ marks a conversion by molar mass, not a printed value.

Tests used:
KB = test: Cytotoxicity against human KB cells; format: cell-based
L1210 = test: Cytotoxicity against mouse L1210 cells; format: cell-based

Question: How did the IC50 (KB) turn out when `Oc1ccc2[nH]cc(-c3cnc(-c4c[nH]c5ccc(O)cc45)nc3)c2c1` [HYRTINADINE A] was run?
Answer: The IC50 was 3 µg/mL (≈ 8.76 µM).

Question: And the IC50 (L1210)?
Answer: The IC50 was 1 µg/mL (≈ 2.92 µM).
